The numbers were not newly measured in publication PMC2716802 (Structure (London, England : 1993), 2008), which cites them from elsewhere.

pKi: −log10 of the molar value. No end group written: not given here.

Usually pKi stands for the negative decadic logarithm of the Ki, by convention in mol/L.

The target of this series is BoNT/A LC (Clostridium botulinum, UniProt P0DPI0).
Sequence of BoNT/A LC (P0DPI0 2-448 limits assumed): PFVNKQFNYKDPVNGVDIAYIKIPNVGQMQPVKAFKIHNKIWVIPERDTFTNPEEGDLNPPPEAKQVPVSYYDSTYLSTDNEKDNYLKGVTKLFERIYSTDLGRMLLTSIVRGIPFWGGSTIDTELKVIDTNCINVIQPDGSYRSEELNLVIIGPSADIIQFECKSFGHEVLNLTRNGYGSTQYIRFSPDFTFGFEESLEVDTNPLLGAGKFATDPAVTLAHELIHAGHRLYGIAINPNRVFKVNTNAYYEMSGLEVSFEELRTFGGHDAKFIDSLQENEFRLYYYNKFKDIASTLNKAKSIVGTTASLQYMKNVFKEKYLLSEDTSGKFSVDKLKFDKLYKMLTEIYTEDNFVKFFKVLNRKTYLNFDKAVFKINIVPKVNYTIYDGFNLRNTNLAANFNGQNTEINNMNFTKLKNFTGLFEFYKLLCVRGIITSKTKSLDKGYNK

Consider Ac-CRATKML, for which the pKi is 5.72.
